Reference: PubChem BioAssay (NCI)
“And” between values parts separate entries of the source, which are not always exact repeats. Equal entries are not always repeated.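 96-well plates; 48 h exposure; 5 concentrations. Endpoints by linear interpolation between flanking doses. Not reached: highest tested concentration assigned. GI50 = concentration required for 50% inhibition of growth. TGI is the concentration that stops growth completely.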

Test system: MDA-MB-468 breast
Experiment: NCI-60 cell line screen, 48 h

SMILES | GI50 | TGI
CCN(CC)CCOc1nc2cc(OC)c(OC)cc2c2c1-c1ccc(OC)cc1C2=O | 10.1 µM | 23.1 µM
Cc1ccc2cnc(N)c(C#Cc3cncc(C(=O)Nc4ccc(CN5CCN(C)CC5)c(C(F)(F)F)c4)c3)c2c1 | 0.662 µM | 1.47 µM
NC(=S)N/N=C\c1nccc2c(C(F)(F)C(F)(F)C(F)(F)F)cccc12 | 0.04 µM | 0.262 µM
C=C(C)[C@@H]1CC[C@]2(C)[C@H](CC=C3[C@@H]4[C@H](C)[C@@H](C)CC[C@]4(CO)CC[C@]32C)[C@@]1(C)CCCN | 0.819 µM | 1.66 µM
N#Cc1ncc(N2C(=O)C3(CCC3)N(c3ccc(OC4CCNCC4)nc3)C2=S)cc1C(F)(F)F | 9.8 µM | 24.6 µM
OC1CCN(CCCOc2c3ccccc3nc3c2oc2ccc(Cl)cc23)CC1 | 1.61 µM | 5.71 µM
O=C(Nc1ccc(-c2ccnc(Nc3ccc(N4CCOCC4)cc3)n2)cc1)C1CCCN1 (stereo not drawn) | 10.2 µM | 26.3 µM
CC[C@H](C)[C@H](NC(=O)c1nccn1C)C(=O)N(C)[C@H](C[C@@H](OC(C)=O)c1nc(C(=O)N[C@@H](Cc2ccccc2)C[C@H](C)C(=O)OC)cs1)C(C)C | 0.427 µM | > 33.3 µM
C=C1C[C@@H]2[C@H](CC[C@]3(C)C(=O)CC[C@@H]23)[C@@]2(C)C=CC(=O)C=C12 | 14.6 µM | 65.2 µM
COc1ccc(S(=O)(=O)n2c3ccccc3n3ncc(-c4nnc(C)o4)c23)cc1 | 0.266 µM | 5.49 µM
Cc1[nH]n(-c2ccccc2)c(=O)c1C(=O)c1ccccc1 | 17.5 µM | > 25 µM
O=S1(=O)CC(Br)C(Br)C1 (stereo not drawn) | 1.39 µM | 3.82 µM
O=C(c1ccccc1)c1ccccc1C(=O)c1ccccc1 | 28.7 µM | > 100 µM
NS(=O)(=O)c1ccc(Nc2nc(N/N=C/c3ccccn3)nc(Nc3ccccc3)n2)cc1 | 0.318 µM | 2.01 µM
Cc1ccc(/C=C2\CN(Cc3cn(CCNc4ccnc5cc(Cl)ccc45)nn3)C/C(=C\c3ccc(C)cc3)C2=O)cc1 | 1.62 µM | 3.72 µM
CC1(C)N=C(N)N=C(N)N1c1ccc(OCCCCNC(=O)c2ccc(S(=O)(=O)F)cc2)c(Cl)c1 | 18.4 µM | > 100 µM
CN1CCc2c(sc3ncnc(N/N=C/c4ccc(Cl)c(Cl)c4)c23)C1 | 10.9 µM | 25.8 µM
CS(=O)(=O)Nc1cc(-c2ccc3ncnc(Nc4cccc(Cl)c4F)c3c2)cnc1Cl | 1.28 µM | 3.44 µM
O=C(O)c1ccc2cccnc2c1O | 1.41 µM | 6.5 µM
O[C@H](CN1CC1)[C@@H](O)CN1CC1 | 0.389 µM | 2.65 µM

SMILES | GI50 | TGI
O=c1oc2cc(OS(=O)(=O)c3ccccc3)ccc2c2c1CCCCC2 | 2.85 µM | > 100 µM
O=c1[nH]cnc2nc(-c3ccc(N(CCCl)CCCl)cc3)[nH]c12 | > 100 µM | > 100 µM
FC(F)(F)c1cc(NC2=NCCN=C(Nc3cc(C(F)(F)F)cc(C(F)(F)F)c3)SS2)cc(C(F)(F)F)c1 | 2.07 µM | 7.45 µM
COc1cc2c(cc1O)CC[C@@H]1C2CC[C@@]2(C)C1CC[C@@H]2O (stereo partly drawn) | 31.1 µM | > 100 µM
Cc1nc2sc(C(=O)Nc3cccc(Cl)c3C)c(N)c2cc1C(C)O (stereo not drawn) | 0.0712 µM | 4.44 µM
C#CCOc1cccc(Nc2ncc3ncn(C4CCN(C(=O)CCl)C4)c3n2)c1 (stereo not drawn) | 19.7 µM | > 62.5 µM
c1cc2ccc1CNCCN1CCNCc3ccc(cc3)Oc3ccc(cc3)CNCCN(CCNCc3ccc(cc3)O2)CCNCc2ccc(cc2)Oc2ccc(cc2)CNCC1 | 0.673 µM | 2.09 µM
COc1cc(CNC(=O)CCSc2nc3ccccc3c(=O)n2Cc2cc(OC)c(OC)c(OC)c2)cc(OC)c1OC | 2.35 µM | 9.67 µM
N#CC1CCc2c(c(-c3cn[nH]c3C(F)(F)F)nc3c(F)cc4[nH]ncc4c23)C1 (stereo not drawn) | 2.19 µM | 6.23 µM
O=C(Nc1cccc([N+](=O)[O-])c1)c1cc2ccccc2cc1O | 2.32 µM | 17.5 µM
Cc1cc(Cl)ccc1NC(=O)NC(C)(C)COC(=O)Nc1cccc(Cl)c1 | 4.61 µM | 36 µM
CCC(=O)OC1=CN2C(=NC(c3ccc(N)cc3)=CC2c2cc(OC)c(OC)c(OC)c2)S1 (stereo not drawn) | 2.1 µM | 6.32 µM
Brc1ccc2c(c1)c(-c1nc(-c3c[nH]c4ncccc34)cs1)cn2CCCN1CCCCC1 | 1.7 µM | 3.25 µM
C=C1C(=O)O[C@H]2[C@H]1CC/C(COC(=O)/C=C/c1c[nH]c3ccccc13)=C\CC[C@@]1(C)O[C@@H]21 | 0.196 µM | 0.404 µM
CCCNc1cccc(-n2ncc3c(N/N=C/c4ccncc4)ncnc32)c1 | 0.768 µM | > 25 µM
Cc1ccc(S(=O)(=O)c2ccsc2N)cc1 | 36.7 µM | > 100 µM
C[C@H]1CC2=CC(=O)CC[C@]2(C)[C@H]2CC[C@@]3(C)[C@@H](CC[C@]3(C)O)[C@H]12 | 33.9 µM | > 100 µM
Cn1c(O)c(N=NC(N)=S)c2ccccc21 | 20.4 µM | > 100 µM
CC(C)(F)C[C@H](N[C@@H](c1ccc(-c2ccc(S(C)(=O)=O)cc2)cc1)C(F)(F)F)C(=O)NC1(C#N)CC1 | 54.4 µM and > 100 µM | 55 µM and > 100 µM
